Laboratory results as given in ChEMBL document CHEMBL1255477, “In vitro properties of BAL30072, a novel siderophore sulfactam with activity against multiresistant gram-negative bacilli” (Antimicrob Agents Chemother, 2010).
Converted amounts (≈) assume the structure as drawn. The source made the active and inactive calls. The rule behind the calls is not given here.

How the values were obtained:
Pseudomonas aeruginosa [1] = assay: Antimicrobial activity against mexAB-oprM protein and mexZ deficient Pseudomonas aeruginosa PAO267 by broth dilution method; format: functional
Pseudomonas aeruginosa [2] = assay: Antimicrobial activity against mexAB-oprM protein and mexCD-oprJ deficient Pseudomonas aeruginosa PAO253 overexpressing MexEF-OprN gene by broth dilution method; format: functional
Pseudomonas aeruginosa [3] = assay: Antimicrobial activity against Pseudomonas aeruginosa BA(C2-107) selected after 25 ug/ml of compound exposure by broth dilution method; format: functional
Pseudomonas aeruginosa [4] = assay: Antimicrobial activity against mexAB-oprM, mexCD-oprJ, mexEF-oprN, mexJK, mexXY, opmH and pscC gene deficient Pseudomonas aeruginosa PAO750 by broth dilution method; format: functional
Acinetobacter sp. = assay: Antimicrobial activity against Acinetobacter sp. by broth dilution method; format: functional
Pseudomonas aeruginosa [5] = conditions: PAO1
Pseudomonas aeruginosa [6] = assay: Antimicrobial activity against Pseudomonas aeruginosa BA by broth dilution method; format: functional
Pseudomonas aeruginosa [7] = assay: Antimicrobial activity against Pseudomonas aeruginosa by broth dilution method; format: functional
Pseudomonas aeruginosa [8] = assay: Antimicrobial activity against Pseudomonas aeruginosa B4 by broth dilution method; format: functional
Pseudomonas aeruginosa [9] = assay: Antimicrobial activity against oprD protein deficient Pseudomonas aeruginosa C2 by broth dilution method; format: functional
Pseudomonas aeruginosa [10] = assay: Antimicrobial activity against Pseudomonas aeruginosa BA(C1-106) selected after 25 ug/ml of compound exposure by broth dilution method; format: functional
Pseudomonas aeruginosa [11] = assay: Antimicrobial activity against mexAB-oprM protein and mexCD-oprJ deficient Pseudomonas aeruginosa PAO238 by broth dilution method; format: functional
[12] = test system: Stenotrophomonas maltophilia; assay: Antimicrobial activity against Stenotrophomonas maltophilia by broth dilution method; format: functional
Escherichia coli [13] = assay: Antimicrobial activity against Escherichia coli by broth dilution method; format: functional
Pseudomonas aeruginosa [14] = assay: Antimicrobial activity against Pseudomonas aeruginosa 527 assessed as number of passages required for MIC to rise above 4 times original MIC; format: functional
Klebsiella pneumoniae [15] = assay: Antimicrobial activity against Klebsiella pneumoniae 1338665 assessed as number of passages required for MIC to rise above 4 times original MIC; format: functional
Burkholderia sp. = assay: Antimicrobial activity against Burkholderia sp. by broth dilution method; format: functional
Proteus vulgaris = assay: Antimicrobial activity against Proteus vulgaris by broth dilution method; format: functional
Klebsiella oxytoca [16] = assay: Antimicrobial activity against Klebsiella oxytoca by broth dilution method; format: functional
Serratia marcescens [17] = assay: Antimicrobial activity against Serratia marcescens by broth dilution method; format: functional
Pseudomonas aeruginosa [18] = assay: Antimicrobial activity against Pseudomonas aeruginosa BA assessed as number of passages required for MIC to rise above 4 times original MIC; format: functional
[19] = test system: Stenotrophomonas maltophilia; assay: Antimicrobial activity against Stenotrophomonas maltophilia 1AC736 assessed as number of passages required for MIC to rise above 4 times original MIC; format: functional
Citrobacter freundii = assay: Antimicrobial activity against Citrobacter freundii by broth dilution method; format: functional
Proteus penneri = assay: Antimicrobial activity against Proteus penneri by broth dilution method; format: functional
Acinetobacter baumannii [20] = assay: Antimicrobial activity against Acinetobacter baumannii HPA74510 assessed as number of passages required for MIC to rise above 4 times original MIC; format: functional
Klebsiella pneumoniae [21] = assay: Antimicrobial activity against Klebsiella pneumoniae by broth dilution method; format: functional
Acinetobacter junii = assay: Antimicrobial activity against Acinetobacter junii 15218 assessed as number of passages required for MIC to rise above 4 times original MIC; format: functional
Providencia stuartii = assay: Antimicrobial activity against Providencia stuartii by broth dilution method; format: functional
Proteus mirabilis = assay: Antimicrobial activity against Proteus mirabilis by broth dilution method; format: functional
Enterobacteriaceae = assay: Antimicrobial activity against Enterobacteriaceae by broth dilution method; format: functional
Providencia rettgeri [22] = assay: Antimicrobial activity against Providencia rettgeri by broth dilution method; format: functional
Klebsiella aerogenes = assay: Antimicrobial activity against Enterobacter aerogenes by broth dilution method; format: functional
Serratia marcescens [23] = assay: Antimicrobial activity against Serratia marcescens S6 harboring beta-lactamase SME-1.AmpC by broth dilution method; format: functional
Escherichia coli [24] = assay: Antimicrobial activity against Escherichia coli Libyien harboring beta-lactamase CMY-2 by broth dilution method; format: functional
[25] = Inhibition of Beta-lactamase IMP1
[26] = Inhibition of Escherichia coli Penicillin-binding protein 3
[27] = Inhibition of beta-lactamase KPC-2
Escherichia coli [28] = assay: Antimicrobial activity against Escherichia coli CF102 harboring beta-lactamase TEM-3 by broth dilution method; format: functional
Providencia rettgeri [29] = assay: Antimicrobial activity against Providencia rettgeri J96 harboring beta-lactamase IMP-1 by broth dilution method; format: functional
Klebsiella pneumoniae [30] = assay: Antimicrobial activity against Klebsiella pneumoniae CRE harboring beta-lactamase KPC-2 by broth dilution method; format: functional
Escherichia coli [31] = assay: Antimicrobial activity against Escherichia coli nmcA harboring beta-lactamase NMCA by broth dilution method; format: functional
Klebsiella pneumoniae [32] = assay: Antimicrobial activity against Klebsiella pneumoniae 1357E harboring beta-lactamase TEM-10 by broth dilution method; format: functional
AmpC = AmpC (Escherichia coli, UniProt Q83TT7); assay: Inhibition of Escherichia coli ATCC 25922 AmpC
[33] = Inhibition of Escherichia coli Penicillin-binding protein 2
[34] = test system: Stenotrophomonas maltophilia; assay: Antimicrobial activity against Stenotrophomonas maltophilia B715 harboring beta-lactamase L1and L2 by broth dilution method; format: functional
Pseudomonas aeruginosa [35] = assay: microbe, parasite or virus in culture; conditions: 18S/H
Escherichia coli [36] = assay: Antimicrobial activity against Escherichia coli K802N harboring beta-lactamase TEM-3 by broth dilution method; format: functional
Escherichia coli [37] = assay: Antimicrobial activity against Escherichia coli A harboring beta-lactamase CTX-M 15 by broth dilution method; format: functional
Klebsiella oxytoca [38] = assay: Antimicrobial activity against Klebsiella oxytoca 1028E harboring beta-lactamase K1 by broth dilution method; format: functional
Klebsiella pneumoniae [39] = assay: Antimicrobial activity against Klebsiella pneumoniae 26768WU harboring beta-lactamase SHV-5 by broth dilution method; format: functional
Acinetobacter baumannii [40] = assay: Antimicrobial activity against Acinetobacter baumannii HPA I-16 harboring beta-lactamase OXA-27 by broth dilution method; format: functional
[41] = Inhibition of Escherichia coli Penicillin-binding protein 1A
Acinetobacter baumannii [42] = assay: Antimicrobial activity against Acinetobacter baumannii HPA74510 harboring beta-lactamase IMP-4 by broth dilution method; format: functional
[43] = Inhibition of Escherichia coli Penicillin-binding protein 1B
Pseudomonas aeruginosa [44] = assay: Antimicrobial activity against Pseudomonas aeruginosa HPA10586 harboring beta-lactamase VIM-1 by broth dilution method; format: functional
Escherichia coli [45] = assay: Antimicrobial activity against Escherichia coli W3110 assessed as appearance of spheroplast at 64 ug/mL after 3 hrs by phase-contrast microscopy; format: functional, organism-based
Acinetobacter baumannii [46] = assay: Antimicrobial activity against Acinetobacter baumannii HPA 327009 harboring beta-lactamase OXA-25 by broth dilution method; format: functional
Escherichia coli [47] = assay: Antimicrobial activity against Escherichia coli W3110 assessed as appearance of long filaments at 64 ug/mL after 3 hrs by phase-contrast microscopy; format: functional, organism-based
Acinetobacter baumannii [48] = assay: Antimicrobial activity against Acinetobacter baumannii HPA 4737 harboring beta-lactamase OXA-26 by broth dilution method; format: functional
Klebsiella pneumoniae [49] = assay: Antimicrobial activity against Klebsiella pneumoniae YC harboring beta-lactamase KPC-2,TEM-1and SHV-2 by broth dilution method; format: functional
Escherichia coli [50] = assay: Antimicrobial activity against Escherichia coli HB101 harboring beta-lactamase TEM-5 by broth dilution method; format: functional
[51] = substrate: C[C@H]1[C@H](NC(=O)/C(=N\OC(C)(C)C(=O)O)c2csc(N)n2)C(=O)N1S(=O)(=O)O; conditions: Escherichia coli; ATCC 25922
[52] = substrate: CC1(C)[C@H](NC(=O)/C(=N\OCc2cc(=O)c(O)cn2O)c2csc(N)n2)C(=O)N1OS(=O)(=O)O; conditions: Escherichia coli; ATCC 25922
[53] = substrate: C[C@H]1[C@H](NC(=O)/C(=N\OC(C)(C)C(=O)O)c2csc(N)n2)C(=O)N1S(=O)(=O)O; conditions: Escherichia coli; ATCC 25922; remark: listed apart in the source
[54] = substrate: CC1(C)[C@H](NC(=O)/C(=N\OCc2cc(=O)c(O)cn2O)c2csc(N)n2)C(=O)N1OS(=O)(=O)O; conditions: Escherichia coli; ATCC 25922; remark: listed apart in the source

POLYMYXIN B
MIC (Pseudomonas aeruginosa [1]): 8 µg/mL
MIC (Pseudomonas aeruginosa [2]): 4 µg/mL
MIC (Pseudomonas aeruginosa [3]): 4 µg/mL
MIC (Pseudomonas aeruginosa [4]): 8 µg/mL
MIC50 (Acinetobacter sp.): 4 µg/mL
MIC90 (Acinetobacter sp.): 32 µg/mL
MIC (Pseudomonas aeruginosa [5]): 8 µg/mL
MIC (Pseudomonas aeruginosa [6]): 4 µg/mL
MIC50 (Pseudomonas aeruginosa [7]): 4 µg/mL
MIC90 (Pseudomonas aeruginosa [7]): 8 µg/mL
MIC (Pseudomonas aeruginosa [8]): 2 µg/mL
MIC (Pseudomonas aeruginosa [9]): 4 µg/mL
MIC (Pseudomonas aeruginosa [10]): 2 µg/mL
MIC (Pseudomonas aeruginosa [11]): 8 µg/mL

CO/N=C(\C(=O)N[C@@H]1C(=O)N2C(C(=O)[O-])=C(C[N+]3(C)CCCC3)CS[C@H]12)c1csc(N)n1
MIC50 [12]: 16 µg/mL (≈ 33.3 µM)
MIC90 [12]: > 32 µg/mL
MIC50 (Escherichia coli [13]): 8 µg/mL (≈ 16.6 µM)
MIC90 (Escherichia coli [13]): > 32 µg/mL
Activity (Pseudomonas aeruginosa [14]): 1 passages
MIC50 (Acinetobacter sp.): 32 µg/mL (≈ 66.6 µM)
MIC90 (Acinetobacter sp.): > 32 µg/mL
Activity (Klebsiella pneumoniae [15]): inactive
MIC50 (Burkholderia sp.): 8 µg/mL (≈ 16.6 µM)
MIC90 (Burkholderia sp.): 16 µg/mL (≈ 33.3 µM)
MIC50 (Pseudomonas aeruginosa [7]): 16 µg/mL (≈ 33.3 µM)
MIC90 (Pseudomonas aeruginosa [7]): 32 µg/mL (≈ 66.6 µM)
MIC50 (Proteus vulgaris): 0.125 µg/mL (≈ 0.26 µM)
MIC90 (Proteus vulgaris): 1 µg/mL (≈ 2.08 µM)
MIC50 (Klebsiella oxytoca [16]): 2 µg/mL (≈ 4.16 µM)
MIC90 (Klebsiella oxytoca [16]): 4 µg/mL (≈ 8.32 µM)
MIC50 (Serratia marcescens [17]): 1 µg/mL (≈ 2.08 µM)
MIC90 (Serratia marcescens [17]): 2 µg/mL (≈ 4.16 µM)
Activity (Pseudomonas aeruginosa [18]): 2 passages
Activity [19]: 1 passages
MIC50 (Citrobacter freundii): 1 µg/mL (≈ 2.08 µM)
MIC90 (Citrobacter freundii): 4 µg/mL (≈ 8.32 µM)
MIC50 (Proteus penneri): 0.125 µg/mL (≈ 0.26 µM)
MIC90 (Proteus penneri): 1 µg/mL (≈ 2.08 µM)
Activity (Acinetobacter baumannii [20]): inactive
MIC50 (Klebsiella pneumoniae [21]): 4 µg/mL (≈ 8.32 µM)
MIC90 (Klebsiella pneumoniae [21]): > 32 µg/mL
Activity (Acinetobacter junii): 14 passages
MIC50 (Providencia stuartii): ≤ 0.06 µg/mL
MIC90 (Providencia stuartii): > 32 µg/mL
MIC50 (Proteus mirabilis): 0.125 µg/mL (≈ 0.26 µM)
MIC90 (Proteus mirabilis): 1 µg/mL (≈ 2.08 µM)
MIC50 (Enterobacteriaceae): 4 µg/mL (≈ 8.32 µM)
MIC50 (Providencia rettgeri [22]): ≤ 0.06 µg/mL
MIC90 (Providencia rettgeri [22]): > 32 µg/mL
MIC90 (Klebsiella aerogenes): 16 µg/mL (≈ 33.3 µM)

C[C@H]1[C@H](NC(=O)/C(=N\OC(C)(C)C(=O)O)c2csc(N)n2)C(=O)N1S(=O)(=O)O [AZTREONAM]
MIC (Serratia marcescens [23]): 16 µg/mL (≈ 36.7 µM)
MIC (Escherichia coli [24]): 16 µg/mL (≈ 36.7 µM)
IC50 [25]: 1.1 mM
IC50 [26]: 23 nM
IC50 [27]: > 2.5 mM
MIC50 (Escherichia coli [13]): > 32 µg/mL
MIC90 (Escherichia coli [13]): > 32 µg/mL
MIC (Escherichia coli [28]): 32 µg/mL (≈ 73.5 µM)
MIC (Providencia rettgeri [29]): 2 µg/mL (≈ 4.59 µM)
MIC (Klebsiella pneumoniae [30]): > 32 µg/mL
MIC50 (Acinetobacter sp.): > 32 µg/mL
MIC90 (Acinetobacter sp.): > 32 µg/mL
MIC (Escherichia coli [31]): > 32 µg/mL
MIC (Klebsiella pneumoniae [32]): > 32 µg/mL
IC50 (AmpC): 60 nM
IC50 [33]: > 50 µM
MIC [34]: 32 µg/mL (≈ 73.5 µM)
MIC (Pseudomonas aeruginosa [35]): > 32 µg/mL
MIC50 (Klebsiella oxytoca [16]): 16 µg/mL (≈ 36.7 µM)
MIC90 (Klebsiella oxytoca [16]): > 32 µg/mL
MIC (Escherichia coli [36]): > 32 µg/mL
MIC (Escherichia coli [37]): > 32 µg/mL
MIC (Klebsiella oxytoca [38]): > 32 µg/mL
MIC (Citrobacter freundii): > 32 µg/mL
MIC50 (Citrobacter freundii): > 32 µg/mL
MIC90 (Citrobacter freundii): > 32 µg/mL
MIC (Klebsiella pneumoniae [39]): > 32 µg/mL
MIC (Acinetobacter baumannii [40]): 32 µg/mL (≈ 73.5 µM)
IC50 [41]: > 50 µM
MIC (Acinetobacter baumannii [42]): 32 µg/mL (≈ 73.5 µM)
IC50 [43]: > 50 µM
MIC (Pseudomonas aeruginosa [44]): 16 µg/mL (≈ 36.7 µM)
Activity (Escherichia coli [45]): Active
MIC (Acinetobacter baumannii [46]): 16 µg/mL (≈ 36.7 µM)
Activity (Escherichia coli [47]): Active
MIC (Acinetobacter baumannii [48]): 32 µg/mL (≈ 73.5 µM)
MIC (Klebsiella pneumoniae [49]): > 32 µg/mL
MIC (Escherichia coli [50]): 32 µg/mL (≈ 73.5 µM)
MIC50 (Klebsiella aerogenes): 4 µg/mL (≈ 9.19 µM)
MIC90 (Klebsiella aerogenes): > 32 µg/mL

MFKTTLCALLITASCSTFAA [AmpC (Escherichia coli), Q83TT7]
Km [51]: 21 µM
kcat [51]: 6e-05 s⁻¹
Km [52]: 100 µM
kcat [52]: 0.004 s⁻¹
kcat/Km [53]: 2.9 M⁻¹ s⁻¹
kcat/Km [54]: 38 M⁻¹ s⁻¹
